The source of these data is paper PMC6102670, “Three New Highly Oxygenated Germacranolides from Carpesium Divaricatum and Their Cytotoxic Activity” (Molecules : A Journal of Synthetic Chemistry and Natural …, 2018).

Where two headings read alike, the source gives them in different places. Where only a bound is given, the exact number is not on record here.

What all share (format): cell-based, Human
Common to all, as to conditions: 4 days incubation, mean ± SD, triplicate

In experiment [1] the test system is A549 lung cancer cell line. The experiment in a line: MTT cytotoxicity assay, A549 cells. On the procedure:
(§1) Cell cultures: Human A549, HepG2, and HeLa cell lines from Cancer Institute and Hospital of Chinese Academy of Medical Sciences (Beijing, China), were cultured in Dulbecco’s modified Eagle’s medium (DMEM, Gibco, CA, USA) supplemented with 10% (v/v) fetal calf serum (Gibco, CA, USA), penicillin G (Macgene, China) 100 units mL^−1 and streptomycin (Macgene, China) 100 μg mL^−1, at 37 °C under 5% CO2.
(§2) Cell viability assay: The assay was run in triplicate. In a 96-well plate, each well was plated with 2 × 10^4 cells. After cell attachment overnight, the medium was removed, and each well was treated with 100 μL of medium containing 0.1% DMSO or different concentrations of the test compounds and the positive control cis-platin. The plate was incubated at 37 °C for 4 days in a humidified, 5% CO2 atmosphere. Cytotoxicity was determined using a modified 3-(4,5-dimethylthiazol-2-yl)-2,5-diphenyltetrazolium bromide (MTT) colorimetric assay. After the addition of a 10 μL MTT solution (5 mg/mL), cells were incubated at 37 °C for 4 h. After adding 150 μL DMSO, cells were shaken to mix thoroughly. The absorbance of each well was measured at 540 nm in a Multiscan photometer.
(§3) Statistical analysis: Values were expressed as mean ± SD. Statistical analyses were performed using the Student’s t-test. Differences were considered significant when associated with a probability of 5% or less (p ≤ 0.05).

Experiment [2] relates to Hep G2 hepatocellular cancer cell line. The experiment in a line: MTT cytotoxicity assay, Hep G2 cells. On the procedure:
as §1, §2, §3

In experiment [3] the test system is HeLa cervical cancer cell line. The experiment in a line: MTT cytotoxicity assay, HeLa cells. Here is the method: as §1, §2, §3

`C=C1C(=O)O[C@H]2[C@H]1[C@@H](O)[C@H](OC(=O)CC(C)C)[C@H](C)CCC(=O)[C@](C)(O)[C@@H]2OC(=O)C(C)C` [Compound 1, 4β,8α-dihydroxy-5β-isobutyryloxy-9β-3-methylbutyryloxy-3-oxo-germacran-6α, 12-olide]: the IC50 is > 40 µM in experiment [1] (Homo sapiens, 96 h); 17 ± 2.23 µM in experiment [2] (Homo sapiens, HepG2, 96 h); 29.39 ± 0.17 µM in experiment [3] (Homo sapiens, 96 h).

For the molecule `N.N.[Cl][Pt][Cl]` [cis-platin, reference compound], the IC50 was 7.9 ± 0.23 µM in experiment [1], 13 ± 1.49 µM in experiment [2] (read-out: IC50 (μM) HepG2) and 15.3 ± 0.35 µM in experiment [3].

For `C=C1C(=O)OC2C1C(O)C(OC(=O)C(C)CC)C(C)CCC(=O)C(C)(O)C2OC(=O)C(C)CC` (stereo not drawn) [Compound 4, divarolide G], the IC50 in experiment [1] (Homo sapiens, 96 h) was > 40 µM; in experiment [2] (Homo sapiens, HepG2, 96 h), > 40 µM; in experiment [3] (Homo sapiens, 96 h) it was > 40 µM.

`C=C(C)C(=O)O[C@H]1[C@H](O)[C@H]2C(=C)C(=O)O[C@@H]2[C@@H](OC(=O)C(C)C)[C@@](C)(O)C(=O)CC[C@H]1C` [Compound 3, divarolide F]: the IC50 is > 40 µM in experiment [1] (Homo sapiens, 96 h); > 40 µM in experiment [2] (Homo sapiens, HepG2, 96 h); > 40 µM in experiment [3] (Homo sapiens, 96 h).

On to `C=C1C(=O)O[C@H]2[C@H]1[C@@H](O)[C@H](OC(=O)CC(C)C)[C@H](C)CCC(=O)[C@](C)(O)[C@@H]2OC(=O)C(C)CC` (stereo partly drawn) [Compound 5, 4β,8α-dihydroxy-5β-2-methylbutyryloxy-9β-3-methylbutyryloxy-3-oxo-germacran-7β, 12α-olide], for which the IC50 in experiment [1] (Homo sapiens, 96 h) was > 40 µM; in experiment [2] (Homo sapiens, HepG2, 96 h), 31.64 ± 0.16 µM; in experiment [3] (Homo sapiens, 96 h), 11.6 ± 1 µM.

Consider `C=C1C(=O)O[C@H]2[C@H]1[C@@H](O)[C@H](OC(=O)CC(C)C)[C@H](C)CCC(=O)[C@](C)(O)[C@@H]2OC(=O)CC(C)C` [Compound 2, divarolide E], for which the IC50 worked out at 30.7 ± 0.51 µM in experiment [1] (Homo sapiens, 96 h); 7.47 ± 0.21 µM in experiment [2] (Homo sapiens, HepG2, 96 h); 16.8 ± 0.27 µM in experiment [3] (Homo sapiens, 96 h).
